According to patent US5166208A, “Fredericamycin A derivatives” (Boston College, priority 1991, dated 1992):
≈ marks a conversion by molar mass, not a printed value.

Assays:
p388 murine leukemia = test: In vivo activity against p388 murine leukemia in an acute mouse model; settings: CDF1 (mixed sex); for AWC (average weight change per mouse): before treatment to day five
Protocol: CDF1 mice of both sexes weighing between 16 and 25 gm. were used, with a 2 gm. weight range and same sex and source used per experiment. BDF1 mice also were used with the same weight, sex and source parameters. Control and test animals were injected interperitoneally with suspension of 1×10^6 p388 murine leukemia cells (0.5 mL dose) on day 0. Groups of 4-6 mice were used for each dosage amount they were treated with 5 doses on day one. A group of ten saline treated control mice was included in each set of experiments. A 30 day protocol was employed with mean survival time in days being determined for each group of mice with the number of survivors at the end of the 30 day period being noted. The mice were weighed before treatment and again on day five. The values listed for average weight change (AWC) is the average weight change per mouse at the specified dose. The change in weight was taken as a measure of drug toxicity. A loss in weight of up to 2 grams is not considered excessive. The results were determined in terms of % T/C which is the ratio of the mean survival time of the treated group to the mean survival time of the saline treated group times 100.

human lung (A549) = test: In vitro microdilution inhibition, human lung A549; assay type: cell-based; settings: A549, 72 hours, 50% of cells killed
Text: (§1) As shown in Table III the compounds of the present invention exert an in vitro antitumor effect. The following cells lines were employed: human lung (A549); resistant human lung with low topo II activity (A549-VP); murine melanoma (B16); human colon tumor (HCT116); human colon tumor with elevated p170 levels (HCTVM); human colon tumor with low topo II activity (HCTVP); and another human colon carcinoma cell line (Moser). In the Table, the designation "NT" indicates the compound was not tested against the specified cell line. The cell lines were maintained in continuous culture at 37°, 5% CO2 and high humidity. Cells were harvested in log phase growth and suspended at concentration of 25,000 cells/mL. A […] aliquot was then added to each well (i.e., 3,750 cells per well) of a 96-well flat bottom plate and the cells were allowed to attach over a 24 hour period. After this 24 hour incubation, a 50 μL sample of the specified compound was added to the first (top) well of each column, and the remaining wells of each column serially diluted, 1:4, and allowed to incubate for 72 hours at 37° C., 5% CO2 and high humidity. Following incubation, 50 μL of freshly prepared stain solution was added to each well. After a 3 hour incubation at room temperature, absorbance was read at 450 nm on a microplate reader to determine the compound concentration at which 50% of the cells were killed, such concentration referred to as the "IC50 ".

[1] = tested on: human colon tumor (HCT116); test: In vitro microdilution inhibition, HCT116; assay type: cell-based; settings: HCT-116, 72 hours, 50% of cells killed
Text: as §1

[2] = tested on: human colon tumor with low topo II activity (HCTVP); test: In vitro microdilution inhibition, HCTVP; assay type: cell-based; settings: 72 hours, 50% of cells killed
Text: as §1

murine melanoma (B16) = test: In vitro microdilution inhibition, B16; assay type: cell-based; settings: Mus musculus; B16, 72 hours, 50% of cells killed
Text: as §1

[3] = tested on: human colon carcinoma cell line (Moser); test: In vitro microdilution inhibition, Moser; assay type: cell-based; settings: 72 hours, 50% of cells killed
Text: as §1

[4] = tested on: human colon tumor with elevated p170 levels (HCTVM); test: In vitro microdilution inhibition, HCTVM; assay type: cell-based; settings: 72 hours, 50% of cells killed
Text: as §1

[5] = tested on: resistant human lung with low topo II activity (A549-VP); test: In vitro microdilution inhibition, resistant human lung A549-VP; assay type: cell-based; settings: A549VP, 72 hours, 50% of cells killed
Text: as §1

| SMILES | AWC (average weight change per mouse) (p388 murine leukemia; 5 mg/kg) | AWC (average weight change per mouse) (p388 murine leukemia; 15 mg/kg) | % T/C (mean survival time treated/control) (p388 murine leukemia; 45 mg/kg) | response vs control in vivo at 5 mg/kg (p388 murine leukemia; Mus musculus, P388, 720 h, 5 mg/kg, read-out: % T/C (mean survival time treated/control)) [%] | response vs control in vivo at 15 mg/kg (p388 murine leukemia; Mus musculus, P388, 720 h, 15 mg/kg, read-out: % T/C (mean survival time treated/control)) [%] | IC50 (human lung (A549)) [µg/mL] | IC50 [1] [µg/mL] | IC50 [2] [µg/mL] | IC50 (murine melanoma (B16)) [µg/mL] | IC50 [3] [µg/mL] | IC50 [4] [µg/mL] | IC50 [5] [µg/mL] |
| --- | --- | --- | --- | --- | --- | --- | --- | --- | --- | --- | --- | --- |
| COCOc1cccc2c1C1(CC2)C(=O)c2c(O)c3c(c(O)c2C1=O)C(=O)C=CC3=O [Example 2, 2',3'-Dihydro-7'-(methoxymethoxy)-1H-indene-1'-spiro-2-[4,9-dihydroxy-2H-benz[f]indene-1,3,5,8-tetrone]] | -0.1 | -1.3 | Toxic | 105 | 110 | 0.36 (≈ 0.856 µM) | 0.25 (≈ 0.595 µM) | 0.29 (≈ 0.69 µM) | 0.14 (≈ 0.333 µM) | 1.07 (≈ 2.55 µM) |  |  |
| O=C1C=CC(=O)c2c(O)c3c(c(O)c21)C(=O)C1(CCc2cccc(O)c21)C3=O [Example 3, 2',3'-Dihydro-7'-hydroxy-1H-indene-1'-spiro-2-[4,9-dihydroxy-benz[f]indene-1,3,5,8-tetrone]] |  |  |  |  |  | 1.14 (≈ 3.03 µM) | 1.13 (≈ 3 µM) | 0.86 (≈ 2.29 µM) | 0.88 (≈ 2.34 µM) | 3.07 (≈ 8.16 µM) |  |  |
| COCOc1cccc2c1C1(CC2)C(=O)c2c(O)c3c(c(O)c2C1=O)C(=O)C(Nc1ccccc1)=CC3=O (stereo not drawn) [Example 18, 2',3'-Dihydro-7'-(methoxymethoxy)-1H-indene-1,-spiro-2-[6-(phenylamino)-4,9-dihydroxy-2H-benz[f]indene-1,3,5,8-tetrone]] |  |  |  |  |  | 0.08 (≈ 0.156 µM) | 0.09 (≈ 0.176 µM) | 0.07 (≈ 0.137 µM) | 0.08 (≈ 0.156 µM) |  | 0.11 (≈ 0.215 µM) | 0.06 (≈ 0.117 µM) |
| COCOc1cccc2c1C1(CC2)C(=O)c2c(O)c3c(c(O)c2C1=O)C(=O)C(NCC(F)(F)F)=CC3=O (stereo not drawn) [Example 13, 2',3'-Dihydro-6-(2,2,2-trifluoroethylamino)-7'-(methoxymethoxy)-1H-indene-1'-spiro-2-[4,9-dihydroxy-2H-benz[f]-indene-1,3,5,8-tetrone]] |  |  |  |  |  | < 0.03 | 0.03 (≈ 0.058 µM) | 0.04 (≈ 0.0773 µM) | 0.03 (≈ 0.058 µM) |  | 0.03 (≈ 0.058 µM) | 0.05 (≈ 0.0966 µM) |
| O=C1C=CC(=O)c2c(O)c3c(c(O)c21)C(=O)C1(CCc2ccccc21)C3=O [Example 4, 2',3'-Dihydro-1H-indene-1'-spiro-2-[4,9-dihydroxy-2H-benz[f]-indene-1,3,5,8-tetrone]] |  |  |  |  |  | 1.5 (≈ 4.16 µM) | 0.3 (≈ 0.833 µM) | 0.4 (≈ 1.11 µM) | 1 (≈ 2.78 µM) |  | 0.3 (≈ 0.833 µM) | 2.3 (≈ 6.38 µM) |
| O=C1C(Sc2ccccc2)=C(Sc2ccccc2)C(=O)c2c(O)c3c(c(O)c21)C(=O)C1(CCc2cccc(O)c21)C3=O [Example 32, 2',3'-Dihydro-7'-hydroxy-1H-indene-1'-spiro-2-[4,9-dihydroxy-6,7-di(phenylmercapto)-2H-benz[f]indene-1,3,5,8-tetrone]] |  |  |  |  |  | > 16 | > 16 | > 16 | > 16 |  | > 16 | > 16 |
